# Source: patent publication US20240209034A1 (priority 2021, published 2024)
# *: point of attachment. Biotin = O=C1N[C@H]2[C@H](CS[C@H]2CCCCC(=O)*)N1
# Experiments:
# [1] = normal mouse serum; conditions: 37° C.
# [2] = system: BxPC-3 cells
Substance,cleaved bond ([1]; up to 24 h),cleaved bond ([1]; up to 6 h),further results
biotin-NCVPhNLRGDLQVLAQKVCRDTKAD-amide,Asn1-C2,–,–
Biotin-CAVPNLRGDLQVLAQKVCRTK-NH2 (cysteine pairing not given here),–,C18-arginine19,–
acetyl-NCVPhNLRGDLQVLADQKVCRDTKD-biotin [C2C18 Ph AD RDTKD DFBP],–,–,cell surface half-life (internalization) [2]: 11.93 min

# Continued, in another order:
cleaved bond ([1]; up to 24 h),cleaved bond ([1]; up to 6 h),Substance,further results
–,"C18-arginine19, 2 h",Biotin-NCVPNLRGDLQVLAQKVCRTK-NH2 (cysteine pairing not given here),–
Asn1-C2,–,Biotin-NCVPNLRGDLQVLAQKVCRDTKAD-NH2 (cysteine pairing not given here),–
–,"C18-arginine19, 2 h",Biotin-CAVPNLRGDLQVLAQKVCRTK-NH2 (cysteine pairing not given here) [C1C18 DFBP],–
